Values after ≈ are worked out from the molar mass of the structure shown.
Key:
Type in all cases: physicochemical
[1] = Solubility of cocrystals in water at room temperature, HPLC area; settings: for Solubility (HPLC area of bilastine), run _1 / Solubility (HPLC area of bilastine), run _2 / solubility on dissolution of cocrystal in water: water; for Solubility (HPLC area of bilastine), run _1 / Solubility (HPLC area of bilastine), run _2: rt; for pH_1 / pH_2: pH of the solution; for solubility on dissolution of cocrystal in water: room temperature, 400 mg in 24 ml
Protocol: 25 μL sample were injected.
Solubility of cocrystals was determined by stirring the product in water at room temperature (400 mg of product in 24 ml of water, 60 vol.). The product was previously milled in order to reduce the crystal size effect. A sample is collected and filtered using a sintered funnel (n° 3) periodically (30, 60, 180 min and after overnight). The filtered solid was immediately analyzed by XRPD, while the mother liquors are filtered through a 0.22 um filter. […] The concentration of Bilastine is determined by HPLC area (in some experiments where a high solubility was detected the mother liquor was diluted by a factor 10). This concentration is compared with the bilastine concentration obtained in the same conditions in order to determine a relative solubility.

[2] = Aqueous solubility of bilastine in the pH range 5-8; settings: water, aqueous buffer
Protocol: The above benzimidazole compounds with selective H1 antihistaminic activity present low solubility in water, which impedes the development of pharmaceutically acceptable means of administering said compounds in liquid form. For example, the solubility of bilastine in the pH range 5-8 is around 500 μg/mL.

[3] = Solubility of bilastine after heating the slurry with acid at 95° C. and cooling (Method 2), HPLC-PDA; settings: for solubility after 24 h: pH 4.3, after 24 h; for solubility at 2 h: aqueous buffer, thermodynamic from solid, pH 4.3, 95° C. 2 h, filtrate stood overnight at room temperature
Protocol: Alternative Method for Determining the Solubility
HPLC-PDA analysis was carried out using a Acquity BEH C18 1.7 μm 100×2.1 mm column at a temperature of 40° C. The isocratic mobile phase was composed of acetonitrile/methanol/ammonium bicarbonate 10 mM pH 8.7 (20.2/24.8/55.0%) (% v/v), at a flow rate of 0.6 mL/min. Samples were centrifuged 10 minutes at 4000 rpm at 20° C., and supernatant diluted to approx. 20-40 μg/mL in water. These diluted samples were kept at 18° C. until analysis. Quantization was performed at 220 nm by area comparison against a calibration curve obtained with bilastine working standard.
Method 2. A slurry of bilastine (100 mg) and the organic carboxylic acid (amount needed to obtain a pH of 4.0-4.5) in water (10 ml) was prepared. The mixture was stirred at 95° C. for 2 h and filtered. The filtrate was cooled to room temperature and allowed to stand overnight.
(§1) Citric acid was added to a slurry of 100 mg of bilastine in 10 mL of water to get a pH of 4.3 and the mixture was heated at 95° C. for 2 h. Then the solid was filtered off and the filtrate was allowed to stand overnight at room temperature. The solid was separated by centrifugation and the concentration of bilastine was determined by HPLC-PDA.
as §1, with “D,L-Tartaric” for “Citric”
as §1, with “Hydrochloric” for “Citric”, “acid 3.7% v/v” for “acid”

Solubility (HPLC area of bilastine), run _1 ([1]; 0 min) [area counts]	Solubility (HPLC area of bilastine), run _2 ([1]; 0 min) [area counts]	Solubility (HPLC area of bilastine), run _1 ([1]; 30 min) [area counts]	Solubility (HPLC area of bilastine), run _2 ([1]; 30 min) [area counts]	Solubility (HPLC area of bilastine), run _1 ([1]; 60 min) [area counts]	Solubility (HPLC area of bilastine), run _2 ([1]; 60 min) [area counts]	Solubility (HPLC area of bilastine), run _1 ([1]; 180 min) [area counts]	Solubility (HPLC area of bilastine), run _2 ([1]; 180 min) [area counts]	Solubility (HPLC area of bilastine), run _1 ([1]; 1080 min) [area counts]	Solubility (HPLC area of bilastine), run _2 ([1]; 1080 min) [area counts]	pH_1 ([1]; run 1, 30 min)	pH_1 ([1]; run 1, 60 min)	pH_1 ([1]; run 1, 180 min)	pH_1 ([1]; run 1, 1080 min)	pH_2 ([1]; run 2, 30 min)	pH_2 ([1]; run 2, 60 min)	pH_2 ([1]; run 2, 180 min)	pH_2 ([1]; run 2, 1080 min)	solubility on dissolution of cocrystal in water [1]	SMILES	also measured
0	0	49106	48462	48363	48871	50828	50771	48315	47972	4.42	4.31	4.08	4.11	4.34	4.3	4.29	3.97	48000 area counts	CCOCCn1c(C2CCN(CCc3ccc(C(C)(C)C(=O)O)cc3)CC2)nc2ccccc21.CCOCCn1c(C2CCN(CCc3ccc(C(C)(C)C(=O)O)cc3)CC2)nc2ccccc21.O=C(O)CCCC(=O)O [GL(I)]	
0	0	61110	61019	61558	61328	60841	62159	48734	55535	4.25	4.22	4.06	4.00	4.25	4.22	4.11	3.98	around 60000 area counts	CCOCCn1c(C2CCN(CCc3ccc(C(C)(C)C(=O)O)cc3)CC2)nc2ccccc21.CCOCCn1c(C2CCN(CCc3ccc(C(C)(C)C(=O)O)cc3)CC2)nc2ccccc21.O=C(O)CCCC(=O)O [GL(IV)]	
0	0	61517	62303	60930	60916	60628	61316	59755	60769	4.00	3.99	3.93	3.95	3.97	3.95	3.94	3.97	60000 area counts	CCOCCn1c(C2CCN(CCc3ccc(C(C)(C)C(=O)O)cc3)CC2)nc2ccccc21.O=C(O)CCCC(=O)O [GL(V)]	
																			CCOCCn1c(C2CCN(CCc3ccc(C(C)(C)C(=O)O)cc3)CC2)nc2ccccc21 [bilastine, 2-[4-(2-{4-[1-(2-Ethoxyethyl)-1H-benzimidazol-2-yl]-1-piperidinyl}ethyl)phenyl]-2-methylpropanoic acid]	solubility [2]: ~500 µg/mL (≈ 1.08 mM); solubility after 24 h ([3]; citric acid): maintained; concentration of bilastine ([3]; hydrochloric acid (comparative), pH 4.3, compared with the pH-dependent solubility of FIG. 1): in accordance with its pH-dependent solubility; solubility after 24 h ([3]; tartaric acid): maintained; solubility at 2 h ([3]; water acidified with D,L-tartaric acid, D,L-tartaric acid): 2700 µg/mL (≈ 5.82 mM); solubility at 2 h ([3]; water acidified with citric acid, citric acid): 2700 µg/mL (≈ 5.82 mM)

Source: patent US20180344854A1, “SUPERSATURATED COMPOSITIONS OF BENZIMIDAZOLE COMPOUNDS” (Faes Farma, S.A., priority 2015, published 2018)
